Molecules are shown by their SMILES. Counter-ions that a name gives are not always drawn.

For test [1], the target named is T1, ChuaMOX (mandelonitrile oxidase) (Chamberlinius hualienensis, UniProt A0A173MZJ8).
T1 construct: native enzyme purified from millipede bodies without guts; ORF 593 residues incl; 17-residue signal peptide; predicted mature 62,818 Da; 67 kDa SDS-PAGE, 65 kDa gel filtration; monomeric, glycosylated, FAD
The format is biochemical.

The target in test [2] is T1, ChuaMOX (mandelonitrile oxidase). As to the kind of experiment: biochemical. The arrangement: Oxidase activity of purified native ChuaMOX, ABTS read-out, pH 5, compound added at 1 mM. Conditions: for remaining activity at 1000 µM: read-out: % of control remaining. On the procedure: Enzymatic activity decreased in conditions approaching neutral pH, and it was lowest at a pH of 7 (Fig. 1c). After one hour of incubation at 25 °C, 80% of the ChuaMOX activity remained over a range of pH values between 3 and 10 (Fig. 1d). […] After one hour of incubation at pH 8, 80% of the activity remained between 25 °C and 50 °C, and all activity was lost at 70 °C (Fig. 1f). […] (Table 1). The enzyme required [compound left out] as a substrate rather than [compound left out] (see Supplementary Table S3). […] The chemicals (see Supplementary Table S5) were purchased from various suppliers (Sigma-Aldrich, Dojindo, Alfa Aesar, and Tokyo Chemical Industries) or synthesized as described below and used as test substrates, inhibitors, and metal salts. Nitriles were prepared from their corresponding aldehydes by way of bisulfite adducts according to Young et al.[23].

The target is the same in test [3]. Format: binding.

T1 sequence (A0A173MZJ8 entry or part of it): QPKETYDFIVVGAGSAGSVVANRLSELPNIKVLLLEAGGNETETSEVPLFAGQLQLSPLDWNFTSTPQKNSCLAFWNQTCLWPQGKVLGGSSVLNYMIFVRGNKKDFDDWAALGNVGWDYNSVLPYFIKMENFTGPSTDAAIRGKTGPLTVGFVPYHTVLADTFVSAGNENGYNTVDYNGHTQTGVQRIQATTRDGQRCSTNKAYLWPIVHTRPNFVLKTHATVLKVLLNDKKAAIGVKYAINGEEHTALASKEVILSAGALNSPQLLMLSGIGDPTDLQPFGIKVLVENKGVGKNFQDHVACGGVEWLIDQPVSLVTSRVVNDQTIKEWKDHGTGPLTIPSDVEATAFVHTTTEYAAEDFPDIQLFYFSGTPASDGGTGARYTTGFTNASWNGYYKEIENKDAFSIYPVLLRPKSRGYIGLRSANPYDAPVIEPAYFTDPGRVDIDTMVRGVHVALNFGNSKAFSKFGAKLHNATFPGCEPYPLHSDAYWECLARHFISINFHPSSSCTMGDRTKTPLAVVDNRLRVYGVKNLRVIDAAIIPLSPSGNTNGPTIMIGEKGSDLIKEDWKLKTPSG

Take `N#CC(O)c1ccccc1` (racemic) [racemic mandelonitrile]: the Km – broadly, the concentration of substrate that gives half-maximal velocity – in test [1] amounted to 2100 µM.
For `c1cnc2c(c1)ccc1cccnc12` [1,10-Phenanthroline], the remaining activity at 1000 µM in test [2] was 84.1%.
The same measure, in the same setting: the result for `c1ccc(-c2ccccn2)nc1` [2,2'-Bipyridyl] reads 87.3%.
On to `Oc1cccc2cccnc12` [8-Hydroxyquinoline], for which the “% of control remaining” value in test [2] (pH 5, standard assay, 1000 µM, inhibitor) was found to be 56.0%.
As to `O=C(O)CI` [Iodoacetic acid], the remaining activity at 1000 µM in test [2] turned out to be 71.4%.
For `CC(C)NNC(=O)c1ccncc1` [Iproniazid], the remaining activity at 1000 µM in test [2] is 80%.
The same measure, in the same setting: the value for `NNC(=O)c1ccncc1` [Isoniazid] was 88%; that for `CCN1C(=O)C=CC1=O` [N-Ethylmaleimide] was 96.8%; that for `C#CCN(C)Cc1ccccc1` [Pargyline] was 100%.
`NNC(N)=O` [Semicarbazide hydrochloride]: the remaining activity at 1000 µM in test [2] is 92%.
Consider `Cc1cc2nc3c(=O)[nH]c(=O)nc-3n(C[C@H](O)[C@H](O)[C@H](O)COP(=O)(O)OP(=O)(O)OC[C@H]3O[C@@H](n4cnc5c(N)ncnc54)[C@H](O)[C@@H]3O)c2cc1C` [flavin adenine dinucleotide], for which, in test [3], the “thin layer chromatography of the prosthetic group; UV-visible spectrum of purifi” value is “Thin layer chromatography (TLC) identified the prosthetic group as flavin adenine dinucleotide (FAD)”.

(Values after article PMC4893617 (Scientific Reports, 2016).)
